Results published in US8470859B2, “Iminopyridine derivative and use thereof” (Takeda Pharmaceutical Company Limited, priority 2006, dated 2013).
Where a name gives a salt, the structure may show the parent alone. Read-outs that look alike come from different tables or passages of the source.

Assays:
[1] = tested on: isolated bladder muscle of BOO model rat; assay: Effect of various drugs on α1 receptor stimulation-induced contraction of isolated bladder muscle of bladder outlet obstruction (BOO) model rat; details: phenylephrine 3 μmol/L; for IC50: Rattus norvegicus, 0.5 h, concentration inhibiting the average tension by 50%, read-out: Inhibitory effect on phenylephrine-induced contraction IC50 (average method); for IC50 / Inhibitory effect on phenylephrine-induced contraction IC30 (stddev method): cumulative treatment, 3 concentrations, 30 min intervals; for Inhibitory effect on phenylephrine-induced contraction IC30 (stddev method): concentration inhibiting the sustained, rhythmic contractile responses by 30%
Procedure: Effect of Various Drugs on α1 Receptor Stimulation-Induced Contraction of Isolated Bladder Muscle of Bladder Outlet Obstruction (BOO) Model Rat
• (i) Seven-week-old male Wistar rats (CLEA Japan, Inc., Tokyo) were used. BOO rat was prepared according to publications (Hashimoto T, Nagabukuro H and Doi T: Effects of the selective acetylcholinesterase inhibitor TAK-802 on the voiding behavior and bladder mass increase in rats with partial bladder outlet obstruction. J Urol. 174: 1137-41., 2005.). After pentobarbital (50 mg/kg i.p., Dainippon Sumitomo Pharma Co., Ltd., Osaka) anesthesia, a lower middle abdominal incision was made to expose the bladder. The prostate was detached, the urethra was ligated along with a glass rod having an outer diameter of 1.2 mm, and the glass rod was removed to prepare partial obstruction of the urethra. After the surgery, the abdomen was sutured, and penicillin (2000 IU/rat, penicillin G potassium, MEIJI SEIKA KAISHA, LTD., Tokyo) was subcutaneously administered. An animal after 2 to 4 weeks from obstruction surgery was used. • (ii) Contractile Responses of Isolated Bladder Muscle (1) Preparation of Bladder Muscle Specimen
BOO model rat was sacrificed by decaptation, and the bladder was isolated. Muscle strips (length 7-10 mm, width about 3 mm) in the longitudinal direction were prepared from the bladder except bladder trigone (4-6 specimen from each bladder).
The prepared bladder muscle specimens were hung in a Magnus bath aerated with 95% O2-5% CO2 gas and filled with modified Krebs solution. The contraction tension was measured by an isometric strain transducer (TSD125C, Biopac systems, Santa Barbara, Calif., USA) and recorded in the hard disc of PC (ThinkCentre, IBM, USA) via an amplifier (DA100C, Biopac systems) and a multichannel data analysis apparatus (MP100A-CE, Biopac systems). For uptaking the data, a dedicated software (Acqknowledge 3.8.1., Biopac systems) was used and the sampling interval was set to 0.2 second (5 Hz). The specimens were hung with a load of about 1 g and, after an equilibration time of 1 hr or longer, the following experiment was performed.
The specimens were treated with phenylephrine (3 μmol/L) to induce contraction. After the contractile response was stabilized (>20 min), the specimens were cumulatively treated 3 times with a drug at a 10-fold common ratio and 30 min intervals, and the variation in the tension was observed.
The variation in the tension due to α1 receptor stimulation was evaluated by the two methods shown below [average method and standard deviation (Stddev) method].
The average tension for one minute was measured immediately before phenylephrine treatment and after the contraction was stabilized after the treatment (immediately before completion of about 20 min observation time), and the difference was taken as 100%. The average tension for one minute was measured immediately before completion of observation time (30 min) after treatment with a drug at each concentration, and the inhibition rate of the drug at each concentration was calculated. In the vehicle treatment group, the variation rate of phenylephrine-induced contraction was calculated every time the specimens were treated 3 times with lo the solvent, and the inhibition rate of the drug at each concentration was adjusted based on the variation rate of the corresponding vehicle treatment group. The concentration (IC50) necessary for inhibiting the average tension by 50% by preclinical package (SAS Institute Japan, Ver. 5.0) was calculated based on the inhibition rate at each concentration.
The standard deviation was measured immediately before phenylephrine treatment and for 5 min after the contraction was stabilized after treatment (immediately before completion of the about 20 min observation time) and the difference was taken as 100%. […]

[2] = target: T1, human adrenaline α1D receptor (Homo sapiens, UniProt P25100); assay: Measurement of α1D receptor binding inhibitory activity ([3H]prazosin binding to membrane fraction of CHO-K1 cells expressing the receptor); details: read-out: binding inhibitory rate (%) (α1D receptor binding inhibitory rate at 1 μM)
T1 construct: expressed in transfected cells; membrane fraction used
T1 sequence (P25100 1-572): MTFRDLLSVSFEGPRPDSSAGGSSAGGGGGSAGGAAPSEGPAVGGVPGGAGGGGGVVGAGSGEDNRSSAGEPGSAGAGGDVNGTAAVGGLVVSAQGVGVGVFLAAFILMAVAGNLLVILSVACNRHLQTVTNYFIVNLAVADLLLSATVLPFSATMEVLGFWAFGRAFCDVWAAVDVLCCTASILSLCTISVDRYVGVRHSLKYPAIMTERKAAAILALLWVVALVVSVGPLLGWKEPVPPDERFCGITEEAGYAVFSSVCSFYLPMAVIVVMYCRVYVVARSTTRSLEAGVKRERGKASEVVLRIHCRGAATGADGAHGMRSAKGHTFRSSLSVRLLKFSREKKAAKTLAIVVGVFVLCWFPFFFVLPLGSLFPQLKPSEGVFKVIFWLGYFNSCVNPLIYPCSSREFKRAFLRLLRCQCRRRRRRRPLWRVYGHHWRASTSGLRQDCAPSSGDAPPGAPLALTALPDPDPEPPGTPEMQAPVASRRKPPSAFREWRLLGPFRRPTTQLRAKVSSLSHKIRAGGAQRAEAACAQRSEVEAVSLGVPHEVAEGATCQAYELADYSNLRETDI
Procedure: Measurement of α1D Receptor Binding Inhibitory Activity
Genetic manipulation methods described below are based on the methods described in Maniatis et al., Molecular Cloning, Cold Spring Harbor Laboratory, 1989, the protocol appended to a reagent and the like. • (i) Preparation of Human Adrenaline α1D Receptor Expression Plasmid
Adrenaline α1D receptor gene was cloned from human […] CDNA by the PCR method. PCR reaction was performed by Gene Amp PCR System 9700 (Applied Biosystems) with […] each of the primer set 5′-[…]-3′ [SEQ ID NO: 1] and 5′-[…]-3′ [SEQ ID NO: 2] prepared in reference to the base sequence of the adrenaline α1D receptor gene reported by DEBRA A. et al. (J. Pharamacol. Exp. Ter., 272, 134-142 (1995)), 200 ng of human brain hippocampus cDNA library (Takara Shuzo Co., Ltd.) as a template and TaKaRa LA-Taq DNA Polymerase (Takara Shuzo Co., Ltd.) (reaction conditions: 45 cycles of 94° C. for 15 sec, 68° C. for 3.5 min).
The PCR fragment obtained above was digested with restriction enzymes NheI (Takara Shuzo Co., Ltd.) and Kpn I (Takara Shuzo Co., Ltd.) and applied to agarose gel electrophoresis to recover DNA fragments. The DNA fragments was ligated with animal cell expression plasmid, pcDNA3.1/Zeo (Invitrogen) digested with NheI and Kpn I, by DNA Ligation Kit Ver.2 (Takara Shuzo Co., Ltd.), and transformed the competent cells of Escherichia coli JM109 to obtain plasmid, pcDNA3. 1/Zeo-Adreα1D. • (ii) Introduction of Human Adrenaline α1D Receptor Expression Plasmid into CHO-K1 Cells and Preparation of Membrane Fraction
CHO-K1 cells passage cultured in HmF12 medium (Invitrogen) containing 10% fetal bovine serum (TRACE SCIENCETIFIC) in a 150 cm^2 culture flask (Corning Coaster) were detached with 0.5 g/L trypsin-0.2 g/L EDTA (Invitrogen), and the cells were washed with D-PBS(−) (Invitrogen) and centrifuged (1000 rpm, 5 min). Then, using Gene Pulser II (BioRad), DNA was introduced into the cells under the following conditions. 1×10^7 cells suspended in D-PBS(−) (700 μl) and 10 μg of pcDNA3.1/Zeo-Adreα1D were added in a 0.4 cm gap cuvette (BioRad), and electroporation was performed under voltage 0.25 kV, capacitance 960 μF. The cells were cultured in HamF12 medium containing 10% fetal bovine serum and 250 μg/mL Zeocin (Invitrogen) and the Zeocin resistance clones were selected.
Plurality of Zeocin resistance clones were selected and cultured in a cell culture flask (150 cm^2) until semiconfluent, and the cellular membrane fraction was prepared as follows.
The semiconfluent cells were detached with 0.02% EDTA containing D-PBS(−) and recovered by centrifugation. The cells were suspended in membrane preparation buffer (10 mM NaHCO3 pH 7.4, protease inhibitor cocktail (Roche)) and disrupted by 3 times of treatment in a polytron homogenizer (model PT-3100, KINEMATICA AG) at 20000 rpm for 20 seconds. After disruption, the cells were centrifuged at 2000 rpm for 10 min and the supernatant containing membrane fractions was obtained. The supernatant was centrifuged using an ultracentrifuge (model L8-70M, rotor 70 Ti, Beckman Instruments) at 30000 rpm for 1 hr to obtain a precipitate containing membrane fractions. The obtained membrane fraction of each clone was subjected to the binding experiment shown below.
The membrane fraction (20 μg/well) [^3H] prazosin (2.5 nM, PerkinElmer Lifescience), as a ligand, were diluted with a binding assay buffer (50 mM Tris-HCl, 10 mM MgCl2, 0.5% BSA, protease inhibitor cocktail pH 7.5) and added to a 96 well microplate, and reacted at room temperature for 1 hr. For the measurement of non-specific binding, phentolamine (Sigma) was further added to 10 μM. Then, the reaction mixture was filtered and transferred to unifilter GF/C (PerkinElmer Lifescience) by using a cell harvester (PerkinElmer Lifescience). The filter was washed 3 times with ice-cooled 50 mM Tris buffer (pH 7.5). […]

[3] = compound at 1 μM, [3H] prazosin 2.5 nM, membrane fraction 20 μg/well

inhibition at 1 µM [2, 3] [%]	Structure (SMILES)	other results
	COc1ccccc1N1CCN(CCN2C(=O)CC3(CCCC3)CC2=O)CC1 [BMY 7378]	IC50 [1]: 270 nM; effect on the rhythmic contractile response induced by phenylephrine (average method and Stddev method), in words [1]: inhibited; Inhibitory effect on phenylephrine-induced contraction IC30 (stddev method) [1]: 89 nM
81.8	N=c1c(C(N)=O)cc(Cl)cn1CCc1ccccc1 [Example 23, 5-chloro-2-imino-1-(2-phenylethyl)-1,2-dihydropyridine-3-carboxamide]	
75.7	N=c1c(C(N)=O)cc(Cl)cn1CC1CCCCC1 [Example 26, 5-chloro-1-(cyclohexylmethyl)-2-imino-1,2-dihydropyridine-3-carboxamide]	
96	CS(=O)(=O)c1cc(Cl)ccc1Cn1cc(Cl)cc(C(N)=O)c1=N [Example 149, 5-chloro-1-[4-chloro-2-(methylsulfonyl)benzyl]-2-imino-1,2-dihydropyridine-3-carboxamide hydrobromide]	
	N#Cc1cc(C(N)=O)c(=N)n(Cc2cccc(Cl)c2)c1 [Example 151, 1-(3-chlorobenzyl)-5-cyano-2-imino-1,2-dihydropyridine-3-carboxamide hydrobromide]	inhibition at 1 µM [2]: 69.5%
91.8	N#Cc1ccc(F)c(Cn2cc(Cl)cc(C(N)=O)c2=N)c1 [Example 156, 5-chloro-1-(5-cyano-2-fluorobenzyl)-2-imino-1,2-dihydropyridine-3-carboxamide hydrobromide]	
95.4	N#Cc1cc(F)cc(Cn2cc(Cl)cc(C(N)=O)c2=N)c1 [Example 181, 5-chloro-1-(3-cyano-5-fluorobenzyl)-2-imino-1,2-dihydropyridine-3-carboxamide hydrobromide]	
99.2	N#Cc1cc(Cl)cc(Cn2cc(Cl)cc(C(N)=O)c2=N)c1 [Example 182, 5-chloro-1-(3-chloro-5-cyanobenzyl)-2-imino-1,2-dihydropyridine-3-carboxamide hydrobromide]	
	COc1ccccc1N1CCN(CC(O)COc2cccc3ccccc23)CC1 (stereo not drawn) [Naftopidil]	IC50 [1]: 1500 nM; effect on the rhythmic contractile response induced by phenylephrine (average method and Stddev method), in words [1]: inhibited; Inhibitory effect on phenylephrine-induced contraction IC30 (stddev method) [1]: 3800 nM
	CCOc1ccccc1OCCN[C@H](C)Cc1ccc(OC)c(S(N)(=O)=O)c1 [Tamsulosin, tamsulosin]	IC50 [1]: 34 nM; effect on the rhythmic contractile response induced by phenylephrine (average method and Stddev method), in words [1]: inhibited; Inhibitory effect on phenylephrine-induced contraction IC30 (stddev method) [1]: 9.4 nM

Structure (SMILES)	inhibition at 1 µM [2, 3] [%]	other results
N=c1c(C(N)=O)cc(Cl)cn1Cc1cccc(Cl)c1 [Example 19, 5-chloro-1-(3-chlorobenzyl)-2-imino-1,2-dihydropyridine-3-carboxamide]	99.1	
N=c1c(C(N)=O)cc(Cl)cn1Cc1ccc(Cl)c(Cl)c1 [Example 20, 5-chloro-1-(3,4-dichlorobenzyl)-2-imino-1,2-dihydropyridine-3-carboxamide]	100	
N=c1c(C(N)=O)cc(Cl)cn1C1CCc2ccccc21 (stereo not drawn) [Example 32, 5-chloro-1-(2,3-dihydro-1H-inden-1-yl)-2-imino-1,2-dihydropyridine-3-carboxamide]	93.9	
C[C@H](c1ccccc1)n1cc(Cl)cc(C(N)=O)c1=N [Example 168, 5-chloro-2-imino-1-[(1R)-1-phenylethyl]-1,2-dihydropyridine-3-carboxamide hydrochloride]	94.7	
N=c1c(C(N)=O)cc(Cl)cn1[C@@H]1CCc2ccccc21 [Example 169, 5-chloro-1-[(1R)-2,3-dihydro-1H-inden-1-yl]-2-imino-1,2-dihydropyridine-3-carboxamide hydrochloride]	100	
